In PubChem BioAssay AID2060885 (Molecular Pharmacology Branch, DTP, NCI, 2025):

Tested on: NCI-H23 complex spheroids with HUVEC/MSC, viability
Test: Anticancer human tumor NCI-H23 cell line growth inhibition [RAS];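 also: spheroids exposed to compound for 7 days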;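 as to viability, T/C: 100% = DMSO vehicle control viability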
Details: for IC50: curve of first compound; for viability, T/C: stronger effect = lower value
Method in brief: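 Tumour cells grown as complex spheroids with HUVEC endothelial cells and mesenchymal stem cells, treated with RAS pathway inhibitor combinations. Each agent spans half-log steps from near clinical Cmax, or 10 microM where Cmax is unknown.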

[1] = second compound 0.000949 µM, first compound 0.0316 µM
[2] = second compound 0.000949 µM, first compound 0.1 µM
[3] = second compound 0.000949 µM, first compound 0.316 µM
[4] = second compound 0.000949 µM, first compound 1 µM
[5] = second compound 0.003 µM, first compound 0.0316 µM
[6] = second compound 0.003 µM, first compound 0.1 µM
[7] = second compound 0.003 µM, first compound 0.316 µM
[8] = second compound 0.003 µM, first compound 1 µM
[9] = second compound 0.00949 µM, first compound 0.0316 µM
[10] = second compound 0.00949 µM, first compound 0.1 µM
[11] = second compound 0.00949 µM, first compound 0.316 µM
[12] = second compound 0.00949 µM, first compound 1 µM
[13] = second compound 0.03 µM, first compound 0.0316 µM
[14] = second compound 0.03 µM, first compound 0.1 µM
[15] = second compound 0.03 µM, first compound 0.316 µM
[16] = second compound 0.03 µM, first compound 1 µM
[17] = second compound 0.0949 µM, first compound 0.0316 µM
[18] = second compound 0.0949 µM, first compound 0.1 µM
[19] = second compound 0.0949 µM, first compound 0.316 µM
[20] = second compound 0.0949 µM, first compound 1 µM
[21] = second compound 0.3 µM, first compound 0.0316 µM
[22] = second compound 0.3 µM, first compound 0.1 µM
[23] = second compound 0.3 µM, first compound 0.316 µM
[24] = second compound 0.3 µM, first compound 1 µM

CC(Nc1ccc2c(c1)OCCn1cc(N3C(=O)OCC3C(F)F)nc1-2)C(N)=O (centres undefined) + CCn1c(-c2cccnc2C(C)OC)c2c3cc(ccc31)N1CCOC(CC(NC(=O)C(C(C)C)N(C)C(=O)C3(F)CCN(C(=O)C#CC(C)(C)N(C)C)CC3)C(=O)N3CCCC(N3)C(=O)OCC(C)(C)C2)C1 showed an IC50 (second compound 0.000949 µM) of less than 31.6 nM, an IC50 (second compound 0.003 µM) of less than 31.6 nM and an IC50 (second compound 0.00949 µM) of less than 31.6 nM. The IC50 (second compound 0.03 µM) was less than 31.6 nM, the IC50 (second compound 0.0949 µM) was less than 31.6 nM and the IC50 (second compound 0.3 µM) was less than 31.6 nM. The viability, T/C [1] was 29.1%, the viability, T/C [2] was 22.3% and the viability, T/C [3] was 21%. For the same compound, the viability, T/C [4] was 23.1%, the viability, T/C (second compound 0.000949 µM, first compound 3.16 µM) was 21.2% and the viability, T/C (second compound 0.000949 µM, first compound 10 µM) was 14%. For the same compound, the viability, T/C [5] was 28.8%, the viability, T/C [6] was 23.6% and the viability, T/C [7] was 19.2%. For the same compound, the viability, T/C [8] was 21%, the viability, T/C (second compound 0.003 µM, first compound 3.16 µM) was 21.1% and the viability, T/C (second compound 0.003 µM, first compound 10 µM) was 13.9%. For the same compound, the viability, T/C [9] was 28.1%, the viability, T/C [10] was 21.2% and the viability, T/C [11] was 20.8%. It also gave a viability, T/C [12] of 19.1%, a viability, T/C (second compound 0.00949 µM, first compound 3.16 µM) of 18.2% and a viability, T/C (second compound 0.00949 µM, first compound 10 µM) of 14.7%. The viability, T/C [13] was 23.1%, the viability, T/C [14] was 24.4% and the viability, T/C [15] was 20.3%. The viability, T/C [16] was 18.3%, the viability, T/C (second compound 0.03 µM, first compound 3.16 µM) was 17% and the viability, T/C (second compound 0.03 µM, first compound 10 µM) was 16%. It also gave a viability, T/C [17] of 24.7%, a viability, T/C [18] of 21.1% and a viability, T/C [19] of 22.5%. It also gave a viability, T/C [20] of 20.7%, a viability, T/C (second compound 0.0949 µM, first compound 3.16 µM) of 13.8% and a viability, T/C (second compound 0.0949 µM, first compound 10 µM) of 16.6%. It also gave a viability, T/C [21] of 22.4%, a viability, T/C [22] of 21.3% and a viability, T/C [23] of 20.1%. The viability, T/C [24] was 15%, the viability, T/C (second compound 0.3 µM, first compound 3.16 µM) was 16.7% and the viability, T/C (second compound 0.3 µM, first compound 10 µM) was 14.9%.
With O=C(c1ccc(F)c(F)c1Nc1ccc(I)cc1F)N1CC(O)([C@@H]2CCCCN2)C1 + CCn1c(-c2cccnc2C(C)OC)c2c3cc(ccc31)N1CCOC(CC(NC(=O)C(C(C)C)N(C)C(=O)C3(F)CCN(C(=O)C#CC(C)(C)N(C)C)CC3)C(=O)N3CCCC(N3)C(=O)OCC(C)(C)C2)C1 the IC50 (second compound 0.000949 µM) was less than 3.16 nM, the IC50 (second compound 0.003 µM) was 26 nM and the IC50 (second compound 0.00949 µM) was less than 3.16 nM. The IC50 (second compound 0.03 µM) was less than 3.16 nM, the IC50 (second compound 0.0949 µM) was less than 3.16 nM and the IC50 (second compound 0.3 µM) was less than 3.16 nM. The viability, T/C (second compound 0.000949 µM, first compound 0.00316 µM) was 32.3%, the viability, T/C (second compound 0.000949 µM, first compound 0.01 µM) was 33.2% and the viability, T/C [1] was 26.2%. It also gave a viability, T/C [2] of 31.8%, a viability, T/C [3] of 16.7% and a viability, T/C [4] of 6.86%. It also gave a viability, T/C (second compound 0.003 µM, first compound 0.00316 µM) of 112%, a viability, T/C (second compound 0.003 µM, first compound 0.01 µM) of 54.8% and a viability, T/C [5] of 51.7%. It also gave a viability, T/C [6] of 42.8%, a viability, T/C [7] of 27.8% and a viability, T/C [8] of 10.3%. The viability, T/C (second compound 0.00949 µM, first compound 0.00316 µM) was 34.5%, the viability, T/C (second compound 0.00949 µM, first compound 0.01 µM) was 25.4% and the viability, T/C [9] was 29.8%. For the same compound, the viability, T/C [10] was 25.9%, the viability, T/C [11] was 14.6% and the viability, T/C [12] was 8.22%. The viability, T/C (second compound 0.03 µM, first compound 0.00316 µM) was 30.1%, the viability, T/C (second compound 0.03 µM, first compound 0.01 µM) was 30.7% and the viability, T/C [13] was 28.3%. It also gave a viability, T/C [14] of 25.4%, a viability, T/C [15] of 12.6% and a viability, T/C [16] of 9.45%. It also gave a viability, T/C (second compound 0.0949 µM, first compound 0.00316 µM) of 29.1%, a viability, T/C (second compound 0.0949 µM, first compound 0.01 µM) of 30.2% and a viability, T/C [17] of 30.9%. For the same compound, the viability, T/C [18] was 22.3%, the viability, T/C [19] was 11% and the viability, T/C [20] was 9.76%. It also gave a viability, T/C (second compound 0.3 µM, first compound 0.00316 µM) of 29.4%, a viability, T/C (second compound 0.3 µM, first compound 0.01 µM) of 26.3% and a viability, T/C [21] of 26.5%. It also gave a viability, T/C [22] of 19.8%, a viability, T/C [23] of 11% and a viability, T/C [24] of 9.07%.
